From patent US4791139A, “Diphenyl ether derivatives and their use as insecticides” (Imperial Chemical Industries PLC, priority 1986, dated 1988)

Columns and labels:
Type in all cases: in vivo
[1] = system: Diabrotica balteata (rootworm larvae); test: Residual test, rootworm larvae (DB), Filter paper/maize seed; conditions: 72 h, 3 days, read-out: DB grading of mortality
Method: (§1) The activity of the Product was determined using a variety of insect pests. The Product was used in the form of liquid preparations containing from 100 to 500 parts per million (ppm) by weight of the Product. The preparations were made by dissolving the Product in acetone and diluting the solutions with water containing 0.1% by weight of a wetting agent sold under the trade name "SYNPERONIC" NX until the liquid preparations contained the required concentration of the Product. "SYNPERONIC" is a Registered Trade Mark. The test procedure adopted with regard to each pest was basically the same and comprised supporting a number of the pests on a medium which was usually a host plant or a foodstuff on which the pests feed, and treating either or both the pests and the medium with the preparations. The mortality of the pests was then assessed at periods usually varying from one to seven days after the treatment.

[2] = system: Tetranychus urticae (spider mites - adult); test: Contact test, spider mites - adult (TUa), French bean leaf; conditions: 72 h, 3 days, read-out: TUA grading of mortality
Method: as §1

Myzus persicae (aphids) = test: Contact test, aphids (MP), Chinese Cabbage leaf; conditions: 72 h, 3 days, read-out: MP grading of mortality
Method: as §1, with “treatment. […] In Table III the pest organism used is designated by a letter code and the pests species, the support medium or food, and the type and duration of test is given in Table II.” for “treatment.”

[3] = system: Blattella germanica (cockroach nymphs); test: Residual test, cockroach nymphs (BG), Plastic pot; conditions: 72 h, 3 days, read-out: BG grading of mortality
Method: as §1

[4] = system: Musca domestica (houseflies - adults); test: Knockdown test, houseflies - adults (MD/KD), Cotton wool/sugar; conditions: 4 hours, read-out: MD/KD grading of knockdown
Method: (§2) The activity of the Product was determined using a variety of insect pests. The Product was used in the form of liquid preparations containing from 100 to 500 parts per million (ppm) by weight of the Product. The preparations were made by dissolving the Product in acetone and diluting the solutions with water containing 0.1% by weight of a wetting agent sold under the trade name "SYNPERONIC" NX until the liquid preparations contained the required concentration of the Product. "SYNPERONIC" is a Registered Trade Mark.
(§3) The test procedure adopted with regard to each pest was basically the same and comprised supporting a number of the pests on a medium which was usually a host plant or a foodstuff on which the pests feed, and treating either or both the pests and the medium with the preparations. The mortality of the pests was then assessed at periods usually varying from one to seven days after the treatment.
In the case of the species Musca domestica (housefly), an additional assessment to determine the knockdown effect of the compounds was performed.
(§4) In Table III the pest organism used is designated by a letter code and the pests species, the support medium or food, and the type and duration of test is given in Table II.

[5] = system: Tetranychus urticae (spider mites - ova); test: Contact test, spider mites - ova (TUe), French bean leaf; conditions: 144 h, 6 days, read-out: TUE grading of mortality
Method: as §1

[6] = system: Musca domestica (houseflies - adults); test: Contact test, houseflies - adults (MD), Cotton wool/sugar; conditions: 24 h, 1 day, read-out: MD grading of mortality
Method: as §1

[7] = system: Nilaparvata lugens (brown plant hopper - nymphs); test: Contact test, brown plant hopper - nymphs (NL), Rice plant; conditions: 72 h, 3 days, read-out: NL grading of mortality
Method: as §1

[8] = system: Heliothis virescens (tobacco budworm - larvae); test: Residual test, tobacco budworm - larvae (HV), Cotton leaf; conditions: 72 h, read-out: HV grading of mortality
Method: as §2, §3
(§5) The results of the tests are given in Table III for each of the Products, at the rate in parts per million given in the second column as a grading of mortality designated as A, B or C wherein A indicates 80-100% mortality or knockdown (70-100% for Meloidogyne incognita), B indicates 50-79% mortality knockdown or knockdown (50-69% for Meloidogyne incognita) and C indicates less than 50% mortality or knockdown.
as §4
(tobacco budworm - larvae)

[9] = system: Spodoptera exigua (lesser army worm - larvae); test: Residual test, lesser army worm - larvae (SP), Cotton leaf; conditions: 72 h, 3 days, read-out: SP grading of mortality
Method: as §2, §3, §5, §4
(lesser army worm - larvae)

[10] = system: Meloidogyne incognita (Tomato root knot eelworm - larvae); test: Residual test, Tomato root knot eelworm - larvae (MI), Semi in-vitro; conditions: 168 h, application rate is half that recorded, 7 days, read-out: MI grading of mortality; for mortality at 250 µg/mL: rate column 500 ppm

Structure (SMILES) | mortality at 500 ppm [1] [%] | mortality at 500 ppm [2] [%] | mortality at 500 ppm (Myzus persicae (aphids)) [%] | mortality at 500 ppm [3] [%] | pest or weed control at 500 ppm [4] [%] | mortality at 500 ppm [5] [%] | mortality at 500 ppm [6] [%] | mortality at 500 ppm [7] [%] | mortality at 500 ppm [8] [%] | mortality at 500 ppm [9] [%] | mortality at 250 µg/mL [10] [%] | further results
COc1ccc(C(CCCc2cccc(Oc3ccccc3)c2)C(F)(F)F)cc1 (racemic) [Compound 49, 1,1,1-Trifluoro-2-(4-methoxyphenyl)-5-(3-phenoxyphenyl)pentane] | < 50 | < 50 | 80 to 100 | < 50 | 80 to 100 | < 50 | 80 to 100 | 80 to 100 | 80 to 100 | 80 to 100 | < 50 | 
CCOc1c(F)cc(C(CCCc2ccc(F)c(Oc3ccccc3)c2)C(F)(F)F)cc1F (racemic) [Compound 64, 1,1,1-Trifluoro-2-(3,5-difluoro-4-ethoxyphenyl)-5-(4-fluoro-3-phenoxyphenyl)pentane] | 50 to 79 | 80 to 100 | 80 to 100 | 80 to 100 | 80 to 100 | 80 to 100 | 80 to 100 | 80 to 100 | 80 to 100 | 80 to 100 | < 50 | 
CC1Oc2ccc(C(CCCc3cccc(Oc4ccccc4)c3)C(F)(F)F)cc2O1 (stereo not shown) [Compound 61, 1,1,1-Trifluoro-2-[3,4-(methylmethylenedioxy)-phenyl]-5-(3-phenoxyphenyl)pentane] | 80 to 100 | < 50 | 80 to 100 | 80 to 100 | 80 to 100 | < 50 | 80 to 100 | 80 to 100 | 80 to 100 | 80 to 100 | < 50 | 
FC(F)(F)Oc1ccc(C(=CC=Cc2cccc(Oc3ccccc3)c2)C(F)(F)Cl)cc1 [Compound 70, 1,1-Difluoro-1-chloro-2-(4-trifluoromethoxyphenyl)-5-(3-phenoxyphenyl)penta-2,4-diene] | < 50 | < 50 | < 50 | < 50 | < 50 | < 50 | < 50 | < 50 | < 50 | < 50 | 50 to 69 | 
CCOc1ccc(C(CC=Cc2c(F)c(F)c(F)c(F)c2F)C(F)(F)F)cc1 (stereo not shown) [Compound 42, 1,1,1-Trifluoro-2-(4-ethoxyphenyl)-5-(pentafluorophenyl)pent-4-ene] | 80 to 100 | < 50 | < 50 | < 50 | < 50 | < 50 | < 50 | < 50 | < 50 | < 50 | < 50 | 
Fc1ccc(CCCC(c2ccc(OC(F)(F)F)cc2)C(F)F)cc1Oc1ccccc1 (racemic) [Compound 27, 1,1-Difluoro-2-(4-trifluoromethoxyphenyl)-5-(4-fluoro-3-phenoxyphenyl)pentane] | 80 to 100 | 80 to 100 | 80 to 100 | 80 to 100 | 80 to 100 | < 50 | 80 to 100 | 80 to 100 | 80 to 100 | 80 to 100 | < 50 | 
CCOc1ccc(C(=CC=Cc2cccc(Oc3ccccc3)n2)C(F)(F)F)cc1 [Compound 100, 1,1,1-Trifluoro-2-(4-ethoxyphenyl)-5-(6-phenoxypyrid-2-yl)penta-2,4-diene] | < 50 | < 50 | < 50 | < 50 | 50 to 79 | < 50 | < 50 | 50 to 79 | < 50 | < 50 | < 50 | 
COCc1ccc(C(=CCCc2cccc(Oc3ccccc3)c2)C(F)(F)F)cc1 [Compound 44, 1,1,1-Trifluoro-2-(4-methoxymethylphenyl)-5-(3-phenoxyphenyl)-pent-2-ene] | < 50 | 80 to 100 | < 50 | < 50 | < 50 | < 50 | < 50 | < 50 | < 50 | 50 to 79 | < 50 | 
FC(F)(F)C(=CCCc1cccc(Oc2ccccc2)c1)c1ccc2c(c1)CCC2 [Compound 48, 1,1,1-Trifluoro-2-(5-indanyl)-5-(3-phenoxyphenyl)pent-2-ene] |  |  |  |  |  |  |  |  |  |  |  | mortality at 250 ppm ([1]; 250 ppm): 50 to 79%; mortality at 250 ppm ([2]; 250 ppm): < 50%; mortality at 250 ppm (Myzus persicae (aphids); 250 ppm): < 50%; mortality at 250 ppm ([3]; 250 ppm): 50 to 79%; pest or weed control at 250 ppm ([4]; 250 ppm): < 50%; mortality at 250 ppm ([5]; 250 ppm): < 50%; mortality at 250 ppm ([6]; 250 ppm): < 50%; mortality at 250 ppm ([7]; 250 ppm): < 50%; mortality at 250 ppm [8]: < 50%; mortality at 250 ppm ([9]; 250 ppm): < 50%; mortality at 125 µg/mL ([10]; rate 250 ppm): < 50%
Fc1cc(Br)c(C(=CC=Cc2cccc(Oc3ccccc3)c2)C(F)(F)F)c(F)c1OC(F)(F)F [Compound 74, 1,1,1-Trifluoro-2-(2-bromo-4,6-difluoro-5-trifluoromethoxyphenyl)-5-(3-phenoxyphenyl)penta-2,4-diene] | < 50 | 50 to 79 | < 50 | < 50 | < 50 | < 50 | < 50 | < 50 | < 50 | < 50 | < 50 | 
CCOc1ccc(C(CCCc2cccc(Oc3ccccc3)c2)C(F)F)cc1 (racemic) [Compound 66, 1,1-Difluoro-2-(4-ethoxyphenyl)-5-(3-phenoxyphenyl)pentane] | 80 to 100 | < 50 | 80 to 100 | 80 to 100 | < 50 | < 50 | 80 to 100 | 80 to 100 | 80 to 100 | 80 to 100 | < 50 | 
